Assay results from patent US7312248B2, “Control of parasites in animals by the use of novel trifluoromethanesulfonanilide oxime ether derivatives” (Schering-Plough Animal Health Corporation, priority 2004, dated 2007).
Read-outs that look alike come from different tables or passages of the source.

Assays:
[1] = tested on: cat flea (Ctenocephalides felis); test: whole plant or invertebrate; assay type: in vivo; details: Ctenocephalides felis
Method in brief: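 Single-dose screen at 1.26 μg/cm^2: acetone solution dried for 24 h on a Coatasil-treated 159 mm^2 flask base, then 15 adult cat fleas aged 3-7 days per flask, four or more replicates, acetone control. Percent dead, meaning not moving or unable to right themselves, recorded after 8, 24 and/or 48 h at 25 °C and 75% RH.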

Haemonchus contortus = Haemonchus contortus larvacidal (larval development) assay; assay type: in vivo; details: 144 h, read-out: Haemonchus contortus LD99
Procedure: a) Haemonchus Contortus Larvacidal Assay:
The effect of compounds on larval development was determined in the assay described by Gill et al. (1995, International Journal of Parasitology 25:463-470). Briefly, in this assay, nematode eggs were applied to the surface of an agar matrix containing the test compound and then allowed to develop through to the L3, infective stage (6 days). The wells for each dilution of every compound (from highest to lowest concentration) were inspected to determine the well number corresponding to the lowest concentration at which development was inhibited in 99% of the nematode larvae present (LD99). Because well numbers correspond to a two-fold serial dilution of each compound, a titre (dilution factor) is generated as 2^n−1, where n is the well number. By dividing the highest concentration tested by the titre an LD99 value can be obtained, representing the concentration required to inhibit development in 99% of the nematode larvae present. The compounds supplied as solid and viscous liquids were dissolved in DMSO. Twelve serial one-half dilutions in DMSO solution were prepared from the stock solution, each of which was then diluted ⅕ with water. Aliquots (10 μl) of each dilution were transferred to the bioassay plates to give a final concentration range of 0.024 to 50 μg/ml.

[2] = 8 h, read-out: C. felis Mortality (%) 8 h, 8 h, Laboratory 1 A data
[3] = 24 h, read-out: C. felis Mortality (%) 24 h, 24 h, Laboratory 1 A data
[4] = 8 h, read-out: Ctenocephalides felis Mortality (%) 8 h
[5] = 24 h, read-out: Ctenocephalides felis Mortality (%) 24 h
[6] = lowest concentration inhibiting development in 99% of larvae, eggs to L3, 6 days, range 0.024 to 50 μg/ml
[7] = 8 h, read-out: C. felis Mortality (%) 8 h, 8 h, Laboratory 2 B data
[8] = 24 h, read-out: C. felis Mortality (%) 24 h, 24 h, Laboratory 2 B data

Compound | mortality at 1.26 µg/cm2, 1.26 µg/cm2 [1, 2] | IC99 (Haemonchus contortus) | other results
C/C(=N\OCc1ccc(Cl)cc1Cl)c1cc(Cl)ccc1NS(=O)(=O)C(F)(F)F [Compound 21] | 5% | 0.7 µg/mL | –
C/C(=N\OCC=C(Cl)Cl)c1cc(Cl)ccc1NS(=O)(=O)C(F)(F)F [Compound 38] | 8% | 0.9 µg/mL | –
C/C(=N\OCc1ccc(C#N)cc1)c1cc(Cl)ccc1NS(=O)(=O)C(F)(F)F [Compound 73] | 1% | 5 µg/mL | –
O=S(=O)(Nc1ccc(Cl)cc1/C=N/OCc1ccc(Br)cc1)C(F)(F)F [Compound 96] | – | 0.7 µg/mL | mortality at 1.26 µg/cm2, 1.26 µg/cm2 [1, 3]: 21%
CCC/C(=N\OCc1ccc(C(F)(F)F)cc1C(F)(F)F)c1cc(Cl)ccc1NS(=O)(=O)C(F)(F)F [Compound 98] | 79% | 1.4 µg/mL | –
O=S(=O)(Nc1ccc(Cl)cc1-c1cc(-c2ccc(F)cc2)on1)C(F)(F)F [Compound 228] | – | – | mortality at 1.26 µg/cm2 [1, 4]: 3%; mortality at 1.26 µg/cm2 [1, 5]: 3%; IC99 (Haemonchus contortus; [6]): 0.4 µg/mL
CC/C(=N\OCc1ccc(C(C)(C)C)cc1)c1cc(Cl)ccc1NS(=O)(=O)C(F)(F)F [Compound 5] | 8% | 3.3 µg/mL | –
C/C(=N\Oc1ccccc1)c1cc(Cl)ccc1NS(=O)(=O)C(F)(F)F [Compound 125] | 6% | 5.5 µg/mL | –
CCC/C(=N\OCC1CCCCC1)c1cc(Cl)ccc1NS(=O)(=O)C(F)(F)F [Compound 111] | – | 5 µg/mL | mortality at 1.26 µg/cm2, 1.26 µg/cm2 [1, 7]: 9%; mortality at 1.26 µg/cm2, 1.26 µg/cm2 [1, 8]: 70%
C/C(=N\Oc1ccc(Br)cc1)c1cc(Cl)ccc1NS(=O)(=O)C(F)(F)F [Compound 137] | – | 0.4 µg/mL | mortality at 1.26 µg/cm2, 1.26 µg/cm2 [1, 3]: 91%
O=S(=O)(Nc1ccc(Cl)cc1-c1cc(-c2ccc(Cl)cc2Cl)on1)C(F)(F)F [Compound 229, N-{4-chloro-2-[5-(2,4-dichlorophenyl)isoxazol-3-yl]phenyl}trifluoromethanesulfonamide] | – | – | mortality at 1.26 µg/cm2 [1, 4]: 2%; mortality at 1.26 µg/cm2 [1, 5]: 7%; IC99 (Haemonchus contortus; [6]): 0.09 µg/mL
O=S(=O)(Nc1ccc(Cl)cc1-c1cc(-c2ccc(Cl)c(Cl)c2)on1)C(F)(F)F [Compound 230] | – | – | mortality at 1.26 µg/cm2 [1, 4]: 8%; mortality at 1.26 µg/cm2 [1, 5]: 15%; IC99 (Haemonchus contortus; [6]): 0.4 µg/mL
O=S(=O)(Nc1ccc(Cl)cc1/C=N/OCc1ccc(Cl)cc1Cl)C(F)(F)F [Compound 67] | 12% | 0.9 µg/mL | –
CC/C(=N\OCc1ccc(C#N)cc1)c1cc(Cl)ccc1NS(=O)(=O)C(F)(F)F [Compound 91] | – | 13 µg/mL | mortality at 1.26 µg/cm2, 1.26 µg/cm2 [1, 3]: 67%
CC/C(=N\Oc1ccc(Br)cc1)c1cc(Cl)ccc1NS(=O)(=O)C(F)(F)F [Compound 138] | – | 1.7 µg/mL | mortality at 1.26 µg/cm2, 1.26 µg/cm2 [1, 3]: 78%
C/C(=N\OCc1cc(C(F)(F)F)ccc1C(F)(F)F)c1cc(Cl)ccc1NS(=O)(=O)C(F)(F)F [Compound 120, N-{2-[1-(2,5-bistrifluoromethylbenzyloxyimino)ethyl]-4-chlorophenyl}trifluoromethanesulfonamide] | 2% | 0.5 µg/mL | –
C/C(=N\OCc1ccc(C(F)(F)F)cc1)c1cc(Cl)ccc1NS(=O)(=O)C(F)(F)F [Compound 14] | 2% | 0.9 µg/mL | –
CC/C(=N\OC/C=C/c1ccccc1)c1cc(Cl)ccc1NS(=O)(=O)C(F)(F)F [Compound 85] | 6% | 1.6 µg/mL | –
O=S(=O)(Nc1ccc(Cl)cc1-c1cc(-c2ccc(F)cc2F)on1)C(F)(F)F [Compound 231, N-{4-chloro-2-[5-(2,4-difluorophenyl)isoxazol-3-yl]phenyl}trifluoromethanesulfonamide] | – | – | mortality at 1.26 µg/cm2 [1, 5]: 7%; IC99 (Haemonchus contortus; [6]): 0.6 µg/mL
O=S(=O)(Nc1ccc(Cl)cc1/C=N/OCc1ccc(C(F)(F)F)cc1C(F)(F)F)C(F)(F)F [Compound 65, N-{2-[(2,4-bistrifluoromethylbenzyloxyimino)methyl]-4-chlorophenyl}trifluoromethanesulfonamide] | 10% | 0.3 µg/mL | –
CC/C(=N\OCc1cc(Br)cc(Br)c1)c1cc(Cl)ccc1NS(=O)(=O)C(F)(F)F [Compound 109] | 3% | 2.8 µg/mL | –
O=S(=O)(Nc1ccc(Cl)cc1/C(=N/OCc1ccc(C(F)(F)F)cc1C(F)(F)F)c1ccccc1)C(F)(F)F [Compound 78] | 21% | 1.8 µg/mL | –
CC/C(=N\Oc1cccc(C(F)(F)F)c1)c1cc(Cl)ccc1NS(=O)(=O)C(F)(F)F [Compound 133] | – | 0.9 µg/mL | mortality at 1.26 µg/cm2, 1.26 µg/cm2 [1, 3]: 71%
CCC/C(=N\OCc1ccc(C(F)(F)F)cc1)c1cc(Cl)ccc1NS(=O)(=O)C(F)(F)F [Compound 92] | 36% | 1.6 µg/mL | –
CC/C(=N\OCc1ccc(F)cc1F)c1cc(Cl)ccc1NS(=O)(=O)C(F)(F)F [Compound 84] | 95% | 3.3 µg/mL | –

Compound | mortality at 1.26 µg/cm2, 1.26 µg/cm2 [1, 2] | IC99 (Haemonchus contortus) | other results
O=S(=O)(Nc1ccc(Cl)cc1/C(=N/OCc1ccc(Cl)c(Cl)c1)c1ccccc1)C(F)(F)F [Compound 87, N-{4-chloro-2-[(3,4-dichlorobenzyloxyimino)phenylmethyl]phenyl}trifluoromethanesulfonamide] | 5% | 1.3 µg/mL | –
O=S(=O)(Nc1ccc(Cl)cc1/C(=N/OCc1ccc(Br)cc1)c1ccccc1)C(F)(F)F [Compound 64, N-{2-[(4-bromobenzyloxyimino)phenylmethyl]-4-chlorophenyl}trifluoromethanesulfonamide] | – | 1.4 µg/mL | –
CCC/C(=N\OCc1cc(Br)cc(Br)c1)c1cc(Cl)ccc1NS(=O)(=O)C(F)(F)F [Compound 113] | – | 3.8 µg/mL | –
C/C(=N\OCc1ccccc1)c1cc(Cl)ccc1NS(=O)(=O)C(F)(F)F [Compound 22] | – | 6 µg/mL | –
C/C(=N\OCc1cccc(Cl)c1Cl)c1cc(Cl)ccc1NS(=O)(=O)C(F)(F)F [Compound 19] | – | 0.7 µg/mL | –
CC(C)/C(=N\OCc1ccc(C2CCCCC2)cc1)c1cc(Cl)ccc1NS(=O)(=O)C(F)(F)F [Compound 118] | – | 10 µg/mL | –
O=S(=O)(Nc1ccc(Cl)cc1-c1cc(-c2ccc(Cl)cc2)on1)C(F)(F)F [Compound 227] | – | – | mortality at 1.26 µg/cm2 [1, 4]: 7%; mortality at 1.26 µg/cm2 [1, 5]: 9%; IC99 (Haemonchus contortus; [6]): 0.1 µg/mL
C/C(=N\OCc1ccc(Cl)cc1)c1cc(Cl)ccc1NS(=O)(=O)C(F)(F)F [Compound 16] | – | 1.3 µg/mL | mortality at 1.26 µg/cm2, 1.26 µg/cm2 [1, 7]: 90%; mortality at 1.26 µg/cm2, 1.26 µg/cm2 [1, 8]: 100%
CC/C(=N\OCc1ccc(F)cc1)c1cc(Cl)ccc1NS(=O)(=O)C(F)(F)F [Compound 86] | – | 3.5 µg/mL | –
C/C(=N\OCc1ccccc1Cl)c1cc(Cl)ccc1NS(=O)(=O)C(F)(F)F [Compound 17] | – | 3.5 µg/mL | –
CC/C(=N\OCc1c(F)c(F)c(F)c(F)c1F)c1cc(Cl)ccc1NS(=O)(=O)C(F)(F)F [Compound 77] | 3% | 2.5 µg/mL | –
CC/C(=N\Oc1ccc(C#N)cc1)c1cc(Cl)ccc1NS(=O)(=O)C(F)(F)F [Compound 136] | – | 2.5 µg/mL | mortality at 1.26 µg/cm2, 1.26 µg/cm2 [1, 3]: 74%
O=S(=O)(Nc1ccc(Cl)cc1/C(=N/OCc1ccc(Cl)cc1)c1ccccc1)C(F)(F)F [Compound 63] | – | 1.6 µg/mL | –
O=S(=O)(Nc1ccc(Cl)cc1/C=N/OCc1ccc(C(F)(F)F)cc1)C(F)(F)F [Compound 70] | – | 3 µg/mL | –
CC/C(=N\OCc1c(Cl)cccc1Cl)c1cc(Cl)ccc1NS(=O)(=O)C(F)(F)F [Compound 8] | – | 13 µg/mL | –
C/C(=N\OC(C)c1ccccc1)c1cc(Cl)ccc1NS(=O)(=O)C(F)(F)F (centres unmarked) [Compound 122] | – | 7 µg/mL | –
C/C(=N\OCc1ccc([N+](=O)[O-])cc1)c1cc(Cl)ccc1NS(=O)(=O)C(F)(F)F [Compound 4] | – | 2.5 µg/mL | –
O=S(=O)(Nc1ccc(Cl)cc1-c1cc(-c2ccccc2)on1)C(F)(F)F [Compound 225] | – | – | IC99 (Haemonchus contortus; [6]): 3.2 µg/mL
C/C(=N\OCc1ccccc1C(F)(F)F)c1cc(Cl)ccc1NS(=O)(=O)C(F)(F)F [Compound 13] | – | 3 µg/mL | –
COc1ccc(CO/N=C(\c2ccccc2)c2cc(Cl)ccc2NS(=O)(=O)C(F)(F)F)cc1 [Compound 88] | – | 15 µg/mL | –
CCC/C(=N\OCc1ccc(Cl)c(Cl)c1)c1cc(Cl)ccc1NS(=O)(=O)C(F)(F)F [Compound 101] | – | 1.9 µg/mL | –
O=S(=O)(Nc1ccc(Cl)cc1/C(=N/OCc1ccc(F)cc1F)c1ccccc1)C(F)(F)F [Compound 82] | – | 3.3 µg/mL | –
CC/C(=N\OCc1cccc(Cl)c1)c1cc(Cl)ccc1NS(=O)(=O)C(F)(F)F [Compound 7] | – | 1.6 µg/mL | –
CC(C)/C(=N\OCc1ccc(Cl)cc1Cl)c1cc(Cl)ccc1NS(=O)(=O)C(F)(F)F [Compound 119] | – | 1.2 µg/mL | –
CC/C(=N\OCCCc1ccccc1)c1cc(Cl)ccc1NS(=O)(=O)C(F)(F)F [Compound 105] | – | 3.5 µg/mL | –
